Data as given in patent US20230124764A1, “LACTOBACILLUS HARBINENSIS AND APPLICATION THEREOF” (priority 2018, published 2023).
Values after ≈ are worked out from the molar mass of the structure shown. Like-named read-outs stand apart in the source and are kept apart here.

What was measured:
[1] = tested on: Lacticaseibacillus casei-01; assay: Antibiotic sensitivity, MIC on antibacterial MRS agar plates; format: cell-based; details: for MIC: Lacticaseibacillus
Description: (§1) According to the criteria for determining bacterial resistance (2012 edition) stipulated by the European Food Safety Agency, antibiotics including ampicillin, vancomycin, gentamicin, kanamycin, streptomycin, erythromycin, clindamycin, tetracycline and chloramphenicol were used to prepare antibacterial stock solutions with a concentration of 5120 μg/mL. They were diluted to the required concentration by a diluent preparation method before use, and were added to the corresponding medium according with certain proportion. 9.0 mL of the modified MRS agar media were added into large test tubes. After sterilizing at 121° C. for 15 min, they were placed in a water bath (50° C.) at a constant temperature for later use. 1.0 mL of the antibacterial diluents were pipetted into the large test tubes, followed by vortexing and mixing immediately. The diluents were then poured into a sterile petri dish, and bacteriostatic plates with a certain drug concentration (μg/mL) were prepared after solidification. For each antibiotics, 8 concentration gradient antibacterial plates were prepared according to a ½ dilution method. […] At the same time, a blank plate without inoculation was used as a control. […] 3 parallel experiments were conducted. The lactic acid bacteria susceptibility result was shown in Table 1 determined according to the relevant standards: […] The second step was the preparation of antibacterial plates: antibiotics including ampicillin, vancomycin, gentamicin, kanamycin, streptomycin, erythromycin, clindamycin, tetracycline and chloramphenicol were used to prepare antibacterial stock solutions at a concentration of […]. The solutions were diluted to the required concentration before use according to a diluent preparation method. 1.0 mL of the antibacterial diluents were pipetted into large test tubes with 9.0 mL of modified MRS agar media, followed by vortexing and mixing immediately. Then, they were poured on sterile plates. After solidification, antibacterial plates with a certain antibiotic concentration (m/mL) were obtained. At the same time, a control plate without antibiotic was prepared. […] At the same time, a blank plate without inoculation was used as a control.

[2] = tested on: Schleiferilactobacillus harbinensis M1; assay: as above; format: cell-based; details: for MIC: Schleiferilactobacillus harbinensis
Description: as §1

[3] = CASEI01, against L. casei-01, agar plates, 37° C., 16-20 hours, read-out: MIC value
[4] = against S. harbinensis M1, agar plates, 37° C., 16-20 hours, read-out: MIC value

| Compound | MIC [1, 3] [mg/L] | MIC [2, 4] [mg/L] | further results |
| --- | --- | --- | --- |
| CN(C)[C@@H]1C(O)=C(C(N)=O)C(=O)[C@@]2(O)C(O)=C3C(=O)c4c(O)cccc4[C@@](C)(O)[C@H]3C[C@@H]12 [tetracycline] | 2 (≈ 4.5 µM) | 2 (≈ 4.5 µM) |  |
| CN[C@H](CC(C)C)C(=O)N[C@H]1C(=O)N[C@@H](CC(N)=O)C(=O)N[C@H]2C(=O)N[C@H]3C(=O)N[C@H](C(=O)N[C@H](C(=O)O)c4cc(O)cc(O)c4-c4cc3ccc4O)[C@H](O)c3ccc(c(Cl)c3)Oc3cc2cc(c3O[C@@H]2O[C@H](CO)[C@@H](O)[C@H](O)[C@H]2O[C@H]2C[C@](C)(N)[C@H](O)[C@H](C)O2)Oc2ccc(cc2Cl)[C@H]1O [vancomycin] |  |  | MIC ([1]; CASEI01, read-out: MIC value): 4 mg/L (≈ 2.76 µM); MIC ([2]; M1, read-out: MIC value): 2 mg/L (≈ 1.38 µM) |
| CC[C@H]1OC(=O)[C@H](C)[C@@H](O[C@H]2C[C@@](C)(OC)[C@@H](O)[C@H](C)O2)[C@H](C)[C@@H](O[C@@H]2O[C@H](C)C[C@H](N(C)C)[C@H]2O)[C@](C)(O)C[C@@H](C)C(=O)[C@H](C)[C@@H](O)[C@]1(C)O [erythromycin] | 0.5 (≈ 0.681 µM) | 0.5 (≈ 0.681 µM) |  |
| [H]/N=C(/N)N[C@H]1[C@H](O)[C@@H](O)[C@H](O[C@@H]2O[C@@H](C)[C@](O)(C=O)[C@H]2O[C@@H]2O[C@@H](CO)[C@H](O)[C@@H](O)[C@@H]2NC)[C@@H](N/C(N)=N\[H])[C@@H]1O [streptomycin] | 16 (≈ 27.5 µM) | 8 (≈ 13.8 µM) |  |
| gentamicin |  |  | MIC value ([1]; against L. casei-01, agar plates, 37° C., 16-20 hours): 16 mg/L; MIC value ([2]; against S. harbinensis M1, agar plates, 37° C., 16-20 hours): 16 mg/L |
| CCC[C@@H]1C[C@@H](C(=O)N[C@@H]([C@H]2O[C@H](SC)[C@H](O)[C@@H](O)[C@H]2O)[C@H](C)Cl)N(C)C1 [clindamycin] | 0.125 (≈ 0.294 µM) | 0.5 (≈ 1.18 µM) |  |
| CC1(C)S[C@@H]2[C@H](NC(=O)[C@H](N)c3ccccc3)C(=O)N2[C@H]1C(=O)O [ampicillin] | 1 (≈ 2.86 µM) | 1 (≈ 2.86 µM) |  |
| NC[C@H]1O[C@H](O[C@H]2[C@H](O)[C@@H](O[C@H]3O[C@H](CO)[C@@H](O)[C@H](N)[C@H]3O)[C@H](N)C[C@@H]2N)[C@H](O)[C@@H](O)[C@@H]1O [kanamycin] | 16 (≈ 33 µM) | 16 (≈ 33 µM) |  |
| O=C(N[C@H](CO)[C@H](O)c1ccc([N+](=O)[O-])cc1)C(Cl)Cl [chloramphenicol] | 4 (≈ 12.4 µM) | 2 (≈ 6.19 µM) |  |
